Experimental data as given in the supplement of paper PMC12463676, “Small-molecule dissolution of stress granules by redox modulation benefits ALS models” (Nature Chemical Biology, 2025).

How the values were obtained:
lipoamide = compound: NC(=O)CCCCC1CCSS1 [lipoamide]; assay: thermal stability z-score vs DMSO; higher = more thermally stabilized by treatment; conditions: HeLa, lipoamide concentration 100 µM
Method: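 Cellular thermal proteome profiling in HeLa cells. Cells were treated with 100 µM lipoamide for 1 h, with or without 1 mM arsenate for a further 1 h, then heated to ten temperatures (37-66.3 °C), and soluble protein was quantified by TMT mass spectrometry relative to 0.1% DMSO controls. The thermal stability score (sum of log2 fold changes minus the abundance score) was transformed to a z-score; mean of n = 3 experiments.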

potassium arsenate = compound: O=[As]([O-])(O)O.[K+] [potassium arsenate]; assay: as above; conditions: HeLa; arsenate concentration 1 mM
Method: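 Cellular thermal proteome profiling in HeLa cells treated with 1 mM arsenate for 1 h (DMSO pretreatment), heated to ten temperatures (37-66.3 °C). Soluble protein was quantified by TMT mass spectrometry relative to DMSO controls; the thermal stability score was transformed to a z-score; mean of n = 3 experiments.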

[1] = arsenate co-treatment: 1 mM arsenate 1 h
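Also: each temperature applied for 3 min, abundance score taken as mean log2 fold change at the two lowest temperatures, z-score obtained by mean subtraction and division by SD.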

Sequence of UniProt Q8WXE1 (Q8WXE1 whole entry): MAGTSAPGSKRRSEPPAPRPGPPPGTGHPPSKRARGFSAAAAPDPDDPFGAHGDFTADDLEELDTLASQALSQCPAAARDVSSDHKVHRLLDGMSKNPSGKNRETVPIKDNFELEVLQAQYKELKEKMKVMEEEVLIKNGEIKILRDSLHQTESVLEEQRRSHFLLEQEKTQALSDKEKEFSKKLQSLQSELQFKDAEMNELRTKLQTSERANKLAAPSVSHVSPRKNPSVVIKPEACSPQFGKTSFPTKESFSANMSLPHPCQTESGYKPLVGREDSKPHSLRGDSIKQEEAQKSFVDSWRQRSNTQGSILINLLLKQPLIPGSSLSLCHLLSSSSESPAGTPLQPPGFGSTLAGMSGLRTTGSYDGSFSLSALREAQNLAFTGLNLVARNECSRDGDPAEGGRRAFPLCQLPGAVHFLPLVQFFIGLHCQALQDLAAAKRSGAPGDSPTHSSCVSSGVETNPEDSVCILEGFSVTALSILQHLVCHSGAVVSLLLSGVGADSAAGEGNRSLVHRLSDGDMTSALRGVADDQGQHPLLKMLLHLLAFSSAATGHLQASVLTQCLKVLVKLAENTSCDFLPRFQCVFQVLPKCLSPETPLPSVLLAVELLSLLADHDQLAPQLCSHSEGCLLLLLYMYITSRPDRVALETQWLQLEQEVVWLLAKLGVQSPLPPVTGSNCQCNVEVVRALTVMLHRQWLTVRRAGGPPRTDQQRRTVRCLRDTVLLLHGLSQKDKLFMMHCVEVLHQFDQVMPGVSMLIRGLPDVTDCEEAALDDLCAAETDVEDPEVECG
Sequence of UniProt O75167 (O75167 whole entry): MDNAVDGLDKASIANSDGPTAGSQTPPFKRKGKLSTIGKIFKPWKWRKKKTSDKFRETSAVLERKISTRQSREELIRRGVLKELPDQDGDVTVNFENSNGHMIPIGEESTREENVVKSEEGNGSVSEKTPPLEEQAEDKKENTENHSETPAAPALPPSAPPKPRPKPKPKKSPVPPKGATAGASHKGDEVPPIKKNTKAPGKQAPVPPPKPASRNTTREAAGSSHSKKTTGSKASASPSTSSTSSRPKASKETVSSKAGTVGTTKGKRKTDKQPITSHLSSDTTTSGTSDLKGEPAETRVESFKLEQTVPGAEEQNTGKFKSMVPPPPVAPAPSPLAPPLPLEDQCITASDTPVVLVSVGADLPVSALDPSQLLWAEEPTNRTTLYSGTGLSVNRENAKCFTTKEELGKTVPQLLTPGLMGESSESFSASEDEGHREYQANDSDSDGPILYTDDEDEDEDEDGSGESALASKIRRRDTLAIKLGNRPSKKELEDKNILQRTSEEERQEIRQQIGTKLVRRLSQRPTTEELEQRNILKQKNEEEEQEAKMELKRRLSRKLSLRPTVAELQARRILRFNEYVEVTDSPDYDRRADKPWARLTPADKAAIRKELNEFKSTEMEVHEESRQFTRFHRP
Sequence of UniProt P29372 (P29372 whole entry): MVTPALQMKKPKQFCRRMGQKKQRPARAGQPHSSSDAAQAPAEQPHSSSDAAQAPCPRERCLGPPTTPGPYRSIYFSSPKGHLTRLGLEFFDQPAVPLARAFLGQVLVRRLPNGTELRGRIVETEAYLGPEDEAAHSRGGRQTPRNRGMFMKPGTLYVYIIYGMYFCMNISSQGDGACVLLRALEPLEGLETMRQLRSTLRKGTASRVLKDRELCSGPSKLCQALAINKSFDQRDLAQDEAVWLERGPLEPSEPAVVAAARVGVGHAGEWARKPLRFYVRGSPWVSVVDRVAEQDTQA
Sequence of UniProt Q9ULT8 (Q9ULT8 whole entry): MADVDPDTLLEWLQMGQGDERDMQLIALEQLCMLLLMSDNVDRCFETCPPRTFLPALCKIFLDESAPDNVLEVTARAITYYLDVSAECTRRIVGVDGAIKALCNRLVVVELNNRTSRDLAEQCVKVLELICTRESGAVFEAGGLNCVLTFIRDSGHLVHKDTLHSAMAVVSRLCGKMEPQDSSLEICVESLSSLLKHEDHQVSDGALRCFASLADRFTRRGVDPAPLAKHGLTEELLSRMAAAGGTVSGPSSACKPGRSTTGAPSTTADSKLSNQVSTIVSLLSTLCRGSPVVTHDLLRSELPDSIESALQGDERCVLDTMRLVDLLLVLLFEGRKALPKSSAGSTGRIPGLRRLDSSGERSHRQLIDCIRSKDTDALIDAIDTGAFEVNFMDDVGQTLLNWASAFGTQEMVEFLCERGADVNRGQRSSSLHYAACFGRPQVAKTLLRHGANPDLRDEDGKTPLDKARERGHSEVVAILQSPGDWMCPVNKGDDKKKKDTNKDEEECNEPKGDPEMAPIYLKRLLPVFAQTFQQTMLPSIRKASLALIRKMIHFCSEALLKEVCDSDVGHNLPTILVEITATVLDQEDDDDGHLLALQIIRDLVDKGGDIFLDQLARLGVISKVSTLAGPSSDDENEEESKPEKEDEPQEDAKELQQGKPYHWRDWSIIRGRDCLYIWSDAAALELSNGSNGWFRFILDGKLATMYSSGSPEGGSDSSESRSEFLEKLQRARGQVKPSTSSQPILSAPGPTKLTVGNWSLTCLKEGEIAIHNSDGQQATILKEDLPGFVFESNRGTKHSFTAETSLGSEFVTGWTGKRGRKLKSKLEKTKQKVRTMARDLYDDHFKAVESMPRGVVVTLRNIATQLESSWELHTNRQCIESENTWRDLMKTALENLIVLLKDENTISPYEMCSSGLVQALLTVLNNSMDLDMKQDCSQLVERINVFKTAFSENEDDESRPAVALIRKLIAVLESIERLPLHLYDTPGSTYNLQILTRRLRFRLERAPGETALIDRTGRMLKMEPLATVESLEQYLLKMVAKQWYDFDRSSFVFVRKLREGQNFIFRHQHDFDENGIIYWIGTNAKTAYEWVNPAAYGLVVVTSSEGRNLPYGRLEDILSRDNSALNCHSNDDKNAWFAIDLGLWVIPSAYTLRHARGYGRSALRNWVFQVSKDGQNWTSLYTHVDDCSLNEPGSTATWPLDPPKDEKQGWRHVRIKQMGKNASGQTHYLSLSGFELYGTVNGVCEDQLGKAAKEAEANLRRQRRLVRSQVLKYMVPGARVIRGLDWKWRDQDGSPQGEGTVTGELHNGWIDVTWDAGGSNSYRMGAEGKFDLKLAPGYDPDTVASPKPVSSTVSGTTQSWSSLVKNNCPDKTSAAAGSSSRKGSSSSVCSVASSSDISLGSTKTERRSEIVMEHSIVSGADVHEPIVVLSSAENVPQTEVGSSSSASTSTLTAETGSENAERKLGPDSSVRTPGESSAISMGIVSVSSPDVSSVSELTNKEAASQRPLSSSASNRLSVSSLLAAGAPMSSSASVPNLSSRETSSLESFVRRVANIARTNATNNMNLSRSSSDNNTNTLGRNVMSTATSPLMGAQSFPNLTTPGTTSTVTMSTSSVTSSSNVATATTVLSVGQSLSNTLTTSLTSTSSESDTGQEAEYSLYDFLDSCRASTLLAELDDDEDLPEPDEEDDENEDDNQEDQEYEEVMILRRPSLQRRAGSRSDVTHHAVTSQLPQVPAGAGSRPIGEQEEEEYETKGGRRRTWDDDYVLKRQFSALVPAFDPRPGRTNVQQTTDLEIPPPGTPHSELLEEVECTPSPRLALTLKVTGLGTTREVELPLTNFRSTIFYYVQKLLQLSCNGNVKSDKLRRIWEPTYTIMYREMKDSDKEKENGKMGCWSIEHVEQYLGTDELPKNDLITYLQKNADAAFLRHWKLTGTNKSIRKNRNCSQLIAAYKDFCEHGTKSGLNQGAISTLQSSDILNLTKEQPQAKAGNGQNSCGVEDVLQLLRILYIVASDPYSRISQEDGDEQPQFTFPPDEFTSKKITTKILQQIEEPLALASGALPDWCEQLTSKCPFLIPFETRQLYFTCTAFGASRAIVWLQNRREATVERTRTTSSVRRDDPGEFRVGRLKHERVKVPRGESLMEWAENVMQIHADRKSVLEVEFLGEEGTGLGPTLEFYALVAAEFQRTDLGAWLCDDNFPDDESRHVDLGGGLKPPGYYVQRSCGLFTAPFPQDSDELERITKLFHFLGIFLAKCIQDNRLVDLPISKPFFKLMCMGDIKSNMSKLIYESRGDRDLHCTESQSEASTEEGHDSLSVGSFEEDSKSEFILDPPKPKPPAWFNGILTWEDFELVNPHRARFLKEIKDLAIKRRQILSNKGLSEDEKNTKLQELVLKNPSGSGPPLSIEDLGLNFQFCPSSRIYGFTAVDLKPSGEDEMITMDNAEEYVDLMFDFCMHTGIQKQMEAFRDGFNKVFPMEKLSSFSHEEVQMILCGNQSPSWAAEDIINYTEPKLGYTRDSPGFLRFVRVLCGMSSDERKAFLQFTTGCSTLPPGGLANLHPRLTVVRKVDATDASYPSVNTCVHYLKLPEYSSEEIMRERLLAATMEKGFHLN
Sequence of UniProt Q13409 (Q13409 whole entry): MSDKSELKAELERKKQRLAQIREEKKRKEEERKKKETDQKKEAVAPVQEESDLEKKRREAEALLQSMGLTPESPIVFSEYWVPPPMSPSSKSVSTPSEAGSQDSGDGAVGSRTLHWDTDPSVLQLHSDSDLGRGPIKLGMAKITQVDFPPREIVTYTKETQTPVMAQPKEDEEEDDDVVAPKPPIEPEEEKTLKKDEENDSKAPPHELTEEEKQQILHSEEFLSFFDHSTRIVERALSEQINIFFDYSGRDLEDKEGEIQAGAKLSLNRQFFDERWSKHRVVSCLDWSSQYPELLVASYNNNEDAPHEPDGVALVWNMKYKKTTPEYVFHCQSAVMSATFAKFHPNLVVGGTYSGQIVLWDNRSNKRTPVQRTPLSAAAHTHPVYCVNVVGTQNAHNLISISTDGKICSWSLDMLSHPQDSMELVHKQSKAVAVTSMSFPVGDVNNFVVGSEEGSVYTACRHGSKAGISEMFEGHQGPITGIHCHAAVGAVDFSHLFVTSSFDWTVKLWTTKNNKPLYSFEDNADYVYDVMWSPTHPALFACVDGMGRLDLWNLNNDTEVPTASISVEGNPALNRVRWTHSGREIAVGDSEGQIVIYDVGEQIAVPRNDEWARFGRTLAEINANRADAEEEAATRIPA
Sequence of UniProt P25815 (P25815 whole entry, looked up): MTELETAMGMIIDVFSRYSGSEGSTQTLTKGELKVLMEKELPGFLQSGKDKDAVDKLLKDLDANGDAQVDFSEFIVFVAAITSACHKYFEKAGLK

Target	thermal stability z-score (lipoamide; [1])	thermal stability z-score (lipoamide; arsenate co-treatment: none)	thermal stability z-score (potassium arsenate)
PTP4A1 (UniProt Q93096)	1.33	1.25	0.626
RPSA (UniProt P08865)	0.555	0.847	-1.42
ZNF451 (UniProt Q9Y4E5)	0.0272	0.0565	0.171
MPG (UniProt P29372)	0.128	0.378	0.572
SLC30A7 (UniProt Q8NEW0)	-1.48	-1.78	0.418
PHACTR2 (UniProt O75167)	0.56	-0.408	-0.387
TREX1 (UniProt Q9NSU2)	-0.5	-0.0932	-2.07
YTHDF2 (UniProt Q9Y5A9)	-0.0393	-0.108	0.0979
ACADVL (UniProt P49748)	-0.94	-1.06	-0.558
TBC1D24 (UniProt Q9ULP9)	-0.346	-0.491	0.0941
TBCEL (UniProt Q5QJ74)	-0.202	-0.0108	0.0212
ATL2 (UniProt Q8NHH9)	-0.223	-0.0585	0.103
S100P (UniProt P25815)	0.367	-0.088	0.0845
RBMS2 (UniProt Q15434)	0.0996	0.158	-0.0696
TMED1 (UniProt Q13445)	0.206	0.729	0.967
PLCD3 (UniProt Q8N3E9)	0.235	0.151	0.0088
FYN (UniProt P06241)	0.0671	-0.0839	-1.04
TBL2 (UniProt Q9Y4P3)	-0.257	0.0669	0.366
GNL3L (UniProt Q9NVN8)	-0.151	0.0609	-0.0324
PSMA3 (UniProt P25788)	0.613	0.719	0.398
TKFC (UniProt Q3LXA3)	0.239	0.23	-0.753
ATRIP (UniProt Q8WXE1)	0.275	-0.148	-0.137
ALDH5A1 (UniProt P51649)	0.0808	-0.136	0.302
SSSCA1 (UniProt O60232)	1.33	1.12	0.0653
DAB2IP (UniProt Q5VWQ8)	-0.101	-0.023	-0.398
DYNC1I2 (UniProt Q13409)	0.0629	0.266	-0.19
NUDCD3 (UniProt Q8IVD9)	-0.592	-0.183	0.339
GRWD1 (UniProt Q9BQ67)	0.304	0.0318	-0.541

Target	thermal stability z-score (lipoamide; [1])	thermal stability z-score (lipoamide; arsenate co-treatment: none)	thermal stability z-score (potassium arsenate)
NDUFB10 (UniProt O96000)	-0.509	-0.759	0.18
PSMA6 (UniProt P60900)	0.746	0.795	0.345
FOSL1 (UniProt P15407)	0.361	-0.0186	-0.444
GTPBP8 (UniProt Q8N3Z3)	0.145	0.0392	-0.0237
MAF1 (UniProt Q9H063)	-0.0772	-0.00412	-0.373
CCZ1B|CCZ1	0.296	0.0817	0.404
ANKRD40 (UniProt Q6AI12)	0.246	0.087	0.146
TIAL1 (UniProt Q01085)	-0.227	0.0243	-1.23
HECTD1 (UniProt Q9ULT8)	-0.353	-0.164	0.641
CHD1 (UniProt O14646)	-0.0735	0.209	-0.504
CAPN15 (UniProt O75808)	0.0525	0.0796	-0.24
KCTD1 (UniProt Q719H9)	1.16	0.0871	-1.07
COQ7 (UniProt Q99807)	-0.0244	0.331	0.227
ECI2 (UniProt O75521)	0.0605	-0.724	-0.44
ZNF668 (UniProt Q96K58)	0.0589	-0.155	-0.073
RRP15 (UniProt Q9Y3B9)	-0.279	-0.438	-0.817
C17ORF59 (UniProt Q96GS4)	0.136	-0.131	-0.163
NOMO2 (UniProt Q5JPE7)	-3.91	-3.99	0.407
MAVS (UniProt Q7Z434)	0.0772	0.294	-0.963
NTPCR (UniProt Q9BSD7)	-0.0779	-0.905	-0.753
KIF20A (UniProt O95235)	0.142	0.152	-0.154
LRRC47 (UniProt Q8N1G4)	0.175	0.38	1.06
UBL4A (UniProt P11441)	0.683	1.2	1.11
COLGALT1 (UniProt Q8NBJ5)	-4.85	-4.14	0.633
TUBB6 (UniProt Q9BUF5)	-0.348	0.0923	0.532
GSTO1 (UniProt P78417)	3	2.41	0.362
POGZ (UniProt Q7Z3K3)	-0.198	0.0592	-0.422
